Our source for the IC50 values is patent publication US6767991B1, “Hepatitis C inhibitor peptides” (priority 1997, dated 2004).

One may read the pIC50 as the IC50 on a negative log10 scale, so that one unit is a factor of ten.

pIC50: −log10 of the molar value. Read-outs that look alike come from different tables or passages of the source. *1 amine or outer side, *2 acyl side, *3 side chain or, on linkers, in order; H or OH if unused. Where a SMILES comes first, the peptide text is derived from it. Where no end group is shown, it is not given here. [ ]: non-standard residue; d: D form. The star is where a group is joined. CH2(1-naphthyl) = c1ccc2c(C*)cccc2c1; Glutaryl = O=C(CCCC(=O)[*:2])[*:1]; Hyp = O=C(O)[C@@H]1C[C@@H](O)CN1; NMeI = CC[C@H](C)[C@H](NC)C(=O)O; AllylGly = C=CC[C@H](N)C(=O)O; Chg = N[C@H](C(=O)O)C1CCCCC1; Suc = O=C(CCC(=O)[*:2])[*:1]; Tle = CC(C)(C)[C@H](N)C(=O)O; Nva = CCC[C@H](N)C(=O)O; X1 = c1ccc2cc(C*)ccc2c1; X4 = Brc1cc(Br)cc(C*)c1; Ac3c = NC1(C(=O)O)CC1; Boc = CC(C)(C)OC(=O)*; X3 = CC(=O)OCC(=O)*; Bn = c1ccc(C*)cc1

The target in this experiment is T1, HCV NS3 protease type 1b/NS4A cofactor peptide (Hepatitis C virus genotype 1b, UniProt P26663).
T1 construct: recombinant HCV NS3 protease (amino acid 1027 to 1206) was cloned in the pET11d bacterial expression vector; made in house; host or cells: E. coli BL21(DE3)pLysS
T1 sequence (P26663 1027-1206, other chains not shown): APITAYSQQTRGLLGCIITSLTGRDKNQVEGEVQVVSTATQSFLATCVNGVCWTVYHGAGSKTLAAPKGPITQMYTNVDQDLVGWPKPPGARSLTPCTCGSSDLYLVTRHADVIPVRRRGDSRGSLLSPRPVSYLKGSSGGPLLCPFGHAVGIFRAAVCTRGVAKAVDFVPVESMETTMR
The experiment is described as follows: Recombinant HCV NS3 protease/NS4A cofactor peptide radiometric assay. It counts as biochemical, HCV genotype 1b. The conditions noted are these: read-out: IC50. How it is done:
Recombinant HCV NS3 Protease/NS4A Cofactor Peptide Radiometric Assay.
The enzyme was stored at −80° C., thawed on ice and diluted just prior to use in the assay buffer containing the NS4A cofactor peptide.
The substrate used for the NS3 protease/NS4A cofactor peptide radiometric assay, DDIVPC-SMSYTW [SEQ. ID NO. 2], is cleaved between the cysteine and the serine residues by the enzyme. The sequence DDIVPC-SMSYTW [SEQ. ID NO. 2] corresponds to the NS5A/NS5B natural cleavage site in which the cysteine residue in P2 has been substituted for a proline. The peptide substrate DDIVPC-SMSYTW [SEQ. ID NO. […] ID NO. […] [SEQ. ID NO. 5] (molar ratio enzyme: cofactor 1:100) in the absence or presence of inhibitors. The separation of substrate from products is performed by adding avidin-coated agarose beads to the assay mixture followed by filtration. […] ID NO. 4] product found in the filtrate allows for the calculation of the percentage of substrate conversion and of the percentage of inhibition.
Tris and Tris-HCl (UltraPure) were obtained from Gibco-BRL. Glycerol (UltraPure), MES and BSA were purchased from Sigma. TCEP was obtained from Pierce, DMSO from Aldrich and NaOH from Anachemia.
Assay buffer: 50 mM Tris HCl, pH 7.5, 30% (w/v) glycerol, 1 mg/mL BSA, 1 mM TCEP (TCEP added just prior to use from a 1 M stock solution in water).
Substrate: […] [SEQ. ID NO.
ID NO. 3] (˜1 nM final concentration).
The assay was performed in a 96-well polypropylene plate from Costar. Each well contained:
20 μL substrate/tracer in assay buffer;
10 μL±inhibitor in 20% DMSO/assay buffer;
10 μL NS3 protease 1b/NS4 cofactor peptide (molar ratio 1:100).
Blank (no inhibitor and no enzyme) and control (no inhibitor) were also prepared on the same assay plate.
The enzymatic reaction was initiated by the addition of the enzyme/NS4A peptide solution and the assay mixture was incubated for 40 min at 23° C. under gentle agitation. Ten (10) μL of 0.5N NaOH were added and 10 μL 1 M MES, pH 5.8 were added to quench the enzymatic reaction.
Twenty (20) μL of avidin-coated agarose beads (purchased from Pierce) were added in a Millipore MADP N65 filtration plate. The quenched assay mixture was transferred to the filtration plate, and incubated for 60 min at 23° C. under gentle agitation.
The plates were filtered using a Millipore MultiScreen Vacuum Manifold Filtration apparatus, and 40 μL of the filtrate was transferred in an opaque 96-well plate containing 60 μL of scintillation fluid per well.
The % inhibition was calculated with the following equation:
100-[(countsinh-countsblank)/(countsctl-countsblank)×100]

The mark [1] stands for this setting: Table 1, unmarked values: NS3 protease/NS4A cofactor peptide radiometric assay.
[2] abbreviates: Table 2, unmarked values: NS3 protease/NS4A cofactor peptide radiometric assay.

Regarding Ac-EDIVPC [compound 102], the pIC50 under setting [1] was 4.23. As for `CC(=O)N[C@H](C(=O)N[C@H](C(=O)N1C[C@H](OCc2cc(Br)cc(Br)c2)C[C@H]1C(=O)NC1(C(=O)O)CC1)C(C)C)C1CCCCC1` [compound 272] (Ac-[Chg]V[Hyp](X4)[Ac3c]-OH), the pIC50 under setting [2] is 4.57. In the case of `CCC[C@H](NC(=O)[C@@H]1C[C@@H](OCc2ccccc2)CN1C(=O)[C@@H](NC(=O)[C@@H](NC(=O)[C@H](CC(=O)O)NC(=O)[C@H](CC(=O)O)NC(C)=O)[C@@H](C)CC)C(C)C)C(=O)O` [compound 201] (Ac-DDIV[Hyp](Bn)[Nva]-OH), the pIC50 under setting [2] was 5.14. Consider `CC[C@H](C)[C@H](NC(=O)[C@@H](CCC(=O)O)NC(=O)[C@H](CC(=O)O)NC(C)=O)C(=O)N[C@H](C(=O)N1CCC[C@H]1C(=O)N[C@@H](CS)C(=O)O)C(C)C` [compound 105] (Ac-D[dE]IVPC-OH), for which the pIC50 under setting [1] was 5.82. As to `CC(=O)N[C@H](C(=O)N[C@H](C(=O)N1C[C@H](OCc2ccccc2)C[C@H]1C(=O)N[C@@H](CS)C(=O)O)C(C)C)C1CCCCC1` [compound 261] (Ac-[Chg]V[Hyp](Bn)C-OH), the pIC50 under setting [2] is 4.55. In the case of `CCC[C@H](NC(=O)[C@@H]1C[C@@H](OCc2cccc3ccccc23)CN1C(=O)[C@@H](NC(=O)[C@@H](NC(=O)CCC(=O)O)[C@@H](C)CC)C(C)C)C(=O)O` [compound 221] (Suc-IV[Hyp](CH2(1-naphthyl))[Nva]-OH), the pIC50 under setting [2] is 4.66. In the case of `CC(=O)N[C@H](C(=O)N[C@H](C(=O)N1C[C@H](OCc2cccc3ccccc23)C[C@H]1C(=O)NC1(C(=O)O)CC1)C1CCCCC1)C1CCCCC1` [compound 231] (Ac-[Chg][Chg][Hyp](CH2(1-naphthyl))[Ac3c]-OH), the pIC50 under setting [2] was 5.59. Still for that read-out and setting: the value for `CCC[C@H](NC(=O)[C@@H]1C[C@@H](OCc2cccc3ccccc23)CN1C(=O)[C@@H](NC(=O)[C@@H](NC(C)=O)C1CCCCC1)C(C)C)C(=O)O` [compound 252] (Ac-[Chg]V[Hyp](CH2(1-naphthyl))[Nva]-OH) was 4.70. Turning to Ac-DDIVPC [compound 101], under setting [1], the pIC50 is 4.34. For `CC[C@H](C)[C@H](NC(C)=O)C(=O)N[C@H](C(=O)N1C[C@H](OCc2cccc3ccccc23)C[C@H]1C(=O)NC1(C(=O)O)CC1)C(C)C` [compound 262] (Ac-IV[Hyp](CH2(1-naphthyl))[Ac3c]-OH), under setting [2], the pIC50 was 4.40. On to `C=CC[C@H](NC(=O)[C@@H]1CCCN1C(=O)[C@@H](NC(=O)[C@@H](NC(=O)[C@H](CC(=O)O)NC(=O)[C@H](CC(=O)O)NC(C)=O)[C@@H](C)CC)C(C)C)C(=O)O` [compound 124] (Ac-DDIVP[AllylGly]-OH), for which the pIC50 under setting [1] was 3.68.

As for `CC(=O)N[C@@H](CC(=O)O)C(=O)N[C@@H](CC(=O)O)C(=O)N[C@H](C(=O)N[C@H](C(=O)N1CCC[C@H]1C(=O)N[C@@H](CS)C(=O)O)C(C)C)C(C)(C)C` [compound 111] (Ac-DD[Tle]VPC-OH), the pIC50 under setting [1] was 4.10.

On to `CC[C@H]1C[C@@]1(NC(=O)[C@@H]1C[C@@H](OCc2cccc3ccccc23)CN1C(=O)[C@@H](NC(=O)[C@@H](NC(C)=O)C1CCCCC1)C(C)C)C(=O)O` [compound 514], for which, for the setting “text b180, values of Table 5, 1R,2R versus 1S,2S isomer at P1”, the pIC50 is 4.56. Turning to `CC[C@H](C)[C@H](NC(=O)[C@H](NC(=O)[C@H](CC(=O)O)NC(C)=O)C(C)C)C(=O)N[C@H](C(=O)N1CCC[C@H]1C(=O)N[C@@H](CS)C(=O)O)C(C)C` [compound 274] (Ac-D[dV]IVPC-OH), the pIC50 under setting [2] is 5.12. The same measure, in the same setting: the value for `CC(=O)N[C@H](C(=O)N[C@H](C(=O)N1C[C@H](Oc2cccc(Br)c2)C[C@H]1C(=O)NC1(C(=O)O)CC1)C(C)C)C1CCCCC1` [compound 240] was 4.38. As for `CC[C@H](C)[C@H](NC(=O)[C@H](CC(=O)O)NC(=O)[C@H](CC(=O)O)NC(C)=O)C(=O)N[C@H](C(=O)N1C[C@H](OCc2ccccc2)C[C@H]1C(=O)N[C@@H](CS)C(=O)O)C(C)C` [compound 121] (Ac-DDIV[Hyp](Bn)C-OH), the pIC50 under setting [1] was 5.77. Take `CCC[C@H](NC(=O)[C@@H]1CCCN1C(=O)[C@@H](NC(=O)[C@@H](NC(=O)[C@H](CC(=O)O)NC(=O)CCC(=O)O)[C@@H](C)CC)C(C)C)C(=O)O` [compound 130] (Suc-DIVP[Nva]-OH): the pIC50 under setting [1] was 3.91. Regarding `CC(C)(C)OC(=O)N[C@H](C(=O)N[C@H](C(=O)N1C[C@H](OCc2cccc3ccccc23)C[C@H]1C(=O)NC1(C(=O)O)CC1)C1CCCCC1)C1CCCCC1` [compound 235] (Boc-[Chg][Chg][Hyp](CH2(1-naphthyl))[Ac3c]-OH), the negative logarithm of the IC50 (pIC50) under setting [2] is 4.92. On the same count and under the same terms, the value for `CCC[C@H](NC(=O)[C@@H]1C[C@@H](OCc2cccc3ccccc23)CN1C(=O)[C@@H](NC(=O)[C@@H](NC(=O)CCCC(=O)O)[C@@H](C)CC)C(C)C)C(=O)O` [compound 222] (Glutaryl-IV[Hyp](CH2(1-naphthyl))[Nva]-OH) was 4.70. In the case of Ac-DDIVIC [compound 119], the pIC50 under setting [1] was 4.05. In the case of `CC[C@H](C)[C@H](NC(=O)[C@@H](CCC(=O)O)NC(=O)[C@H](CC(=O)O)NC(C)=O)C(=O)N[C@H](C(=O)N1C[C@H](OCc2ccccc2)C[C@H]1C(=O)N[C@@H](CS)C(=O)O)C(C)C` [compound 260] (Ac-D[dE]IV[Hyp](Bn)C-OH), under setting [2], the pIC50 is 6.74. For `CC[C@H](C)[C@H](NC(=O)[C@H](CC(=O)O)NC(=O)[C@H](CC(=O)O)NC(C)=O)C(=O)N[C@H](C(=O)N1CCC[C@H]1C(=O)NC1(C(=O)O)CC1)C(C)C` [compound 126] (Ac-DDIVP[Ac3c]-OH), under setting [1], the pIC50 is 4.35. For the compound `CCC[C@H](NC(=O)[C@@H]1C[C@@H](OCc2cccc3ccccc23)CN1C(=O)[C@@H](NC(=S)[C@@H](NC(=O)CNC(C)=O)[C@@H](C)CC)C(C)C)C(=O)O` [compound 236], the pIC50 under setting [2] was 5.40. In the case of `CCC[C@H](NC(=O)[C@@H]1CCCN1C(=O)[C@@H](NC(=O)[C@@H](NC(=O)[C@@H](CCC(=O)O)NC(=O)[C@H](CC(=O)O)NC(C)=O)[C@@H](C)CC)C(C)C)C(=O)O` [compound 128] (Ac-D[dE]IVP[Nva]-OH), the pIC50 under setting [1] is 5.13. In the case of `CC[C@H](C)[C@H](NC(=O)[C@@H](NC(=O)[C@H](CC(=O)O)NC(C)=O)C(C)(C)C)C(=O)N[C@H](C(=O)N1CCC[C@H]1C(=O)N[C@@H](CS)C(=O)O)C(C)C` [compound 108] (Ac-D[Tle]IVPC-OH), the negative logarithm of the IC50 (pIC50) under setting [1] is 4.51. `CCC[C@H](NC(=O)[C@@H]1C[C@@H](OCc2cccc3ccccc23)CN1C(=O)[C@@H](NC(=O)[C@H]([C@@H](C)CC)N(C)C(=O)CCC(=O)O)C(C)C)C(=O)O` [compound 220] (Suc-[NMeI]V[Hyp](CH2(1-naphthyl))[Nva]-OH): under setting [2], the pIC50 was 4.51. As for `CC(=O)N[C@@H](CC(=O)O)C(=O)N[C@@H](CCC(=O)O)C(=O)N[C@H](C(=O)N[C@@H](CCC(=O)O)C(=O)N[C@@H](CCC(=O)O)C(=O)N[C@@H](CS)C(=O)O)C1CCCCC1` [compound 131] (Ac-DE[Chg]EEC-OH), under setting [1], the pIC50 is 4.62. In the case of `CCC[C@H](NC(=O)[C@@H]1CCCN1C(=O)[C@@H](NC(=O)[C@@H](NC(=O)[C@H](CC(=O)O)NC(=O)[C@H](CC(=O)O)NC(C)=O)[C@@H](C)CC)C(C)C)C(=O)O` (single isomer, unassigned) [compound 273], under setting [2], the pIC50 is 4.76.

Turning to `CCC[C@H](NC(=O)[C@@H]1C[C@@H](OCc2ccc3ccccc3c2)CN1C(=O)[C@@H](NC(=O)[C@@H](NC(=O)[C@@H](CCC(=O)O)NC(=O)[C@H](CC(=O)O)NC(C)=O)[C@@H](C)CC)C(C)C)C(=O)O` [compound 213] (Ac-D[dE]IV[Hyp](X1)[Nva]-OH), under setting [2], the pIC50 is 7.44. For the compound `CC[C@H](C)[C@H](NC(=O)[C@@H](CC(=O)O)NC(=O)[C@H](CC(=O)O)NC(C)=O)C(=O)N[C@H](C(=O)N1CCC[C@H]1C(=O)N[C@@H](CS)C(=O)O)C(C)C` [compound 104] (Ac-D[dD]IVPC-OH), the pIC50 under setting [1] is 5.07.

Turning to `CC(=O)OCC(=O)N[C@H](C(=O)N[C@H](C(=O)N1C[C@H](OCc2cccc3ccccc23)C[C@H]1C(=O)NC1(C(=O)O)CC1)C1CCCCC1)C1CCCCC1` [compound 232] (X3-[Chg][Chg][Hyp](CH2(1-naphthyl))[Ac3c]-OH), under setting [2], the pIC50 is 5.85.
